In patent US10688119B2, “Inhibitors of PCSK9 for treatment of lipoprotein metabolism disorders” (Aarhus Universitet, priority 2015, dated 2020):
“Also recorded” adds a separate entry of the source. Read-outs that look alike come from different tables or passages of the source. Blank lines part the entries; values can stand above or below the molecule they belong to.

Legend:
LDLR in HepG2 cells [1] = experiment: LDLR levels in HepG2 cells by Western blot/densitometry (PCSK9 induced LDLR degradation)
Description: (§2) Purified PCSK9 variants were tested in a cell assay to test their ability to induce degradation of LDLR compared to wild-type PCSK9. Induction of LDLR degradation was analyzed by incubation of HepG2 cells with wild type PCSK9 (WT) or the above PCSK9 mutants and LDLR levels were assessed by Western blotting. HepG2 cells were seeded at a density 250.000 cells per well in 12-well plates. […] Cells were harvested and lysed following 18 hours incubation and LDLR levels were assessed by Western blotting and quantification by densitometry.
The PCSK9 inhibitory effect of overnight incubation with suramin (0-200 μg/ml) was tested in HepG2 cells (FIG. 9 A-B).

J774 macrophages = test system: J774 macrophages; design: dose or concentration left out as unconfirmed; settings: cited from earlier work
apoE−/− mice = settings: 4-week treatment, cited from earlier work
HepG2 cells = experiment: uptake of Bodipy-labelled LDL particles in HepG2 cells; type: cell-based, human; settings: suramin 200 μg/ml overnight, then 4 hours 10 ng/ml Bodipy LDL
Description: FIG. 12: Bar graphs showing the relative fluorescence signal in HepG2 cells after overnight incubation with suramin (200 μg/ml) following 4 hours incubation with 10 ng/ml LDL particles labeled with fluorescence dye Bodipy.

PCSK9 = PCSK9 (Homo sapiens, UniProt Q8NBP7); experiment: Microscale Thermophoresis (MST) equilibrium binding to PCSK9; settings: 100 nM labelled PCSK9, PBS+0.05% Tween-20; for Kd: read-out: KD (affinity for PCSK9, MST)
Sequence of PCSK9 (Q8NBP7 153-692): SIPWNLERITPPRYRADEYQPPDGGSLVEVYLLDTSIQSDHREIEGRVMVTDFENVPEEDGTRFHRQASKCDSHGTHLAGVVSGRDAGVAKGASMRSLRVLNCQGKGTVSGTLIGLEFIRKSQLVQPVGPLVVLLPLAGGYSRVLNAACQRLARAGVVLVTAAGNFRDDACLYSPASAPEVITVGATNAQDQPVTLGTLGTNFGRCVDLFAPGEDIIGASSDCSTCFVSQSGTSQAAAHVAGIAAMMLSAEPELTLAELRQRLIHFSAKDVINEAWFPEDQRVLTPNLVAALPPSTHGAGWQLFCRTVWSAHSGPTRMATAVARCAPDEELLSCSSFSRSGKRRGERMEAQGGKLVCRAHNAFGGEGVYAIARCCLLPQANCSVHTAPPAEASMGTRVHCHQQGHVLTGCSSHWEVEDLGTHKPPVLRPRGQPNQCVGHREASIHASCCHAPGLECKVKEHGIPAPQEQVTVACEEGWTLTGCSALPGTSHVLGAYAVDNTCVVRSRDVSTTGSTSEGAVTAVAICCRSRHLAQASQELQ
Description: PCSK9 was labeled using the MO-L003 Monolith Blue-NHS labeling kit (NanoTemper Technologies) and a labeling efficiency of 1:1 molar ratio of protein to dye was achieved. PCSK9 was applied at a final concentration of 100 nM. […] MST measurements were performed in standard-treated capillaries (NanoTemper Technologies) on a Monolith NT.115 instrument (NanoTemper Technologies) using 20% LED and 80% MST power. Laser on and off times were 5 s and 35 s, respectively. Negative controls were performed using 100 nM of labelled PCSK9 in MST buffer in all 16 capillaries under the same conditions as mentioned above. […] For each binding partner, the sigmoidal dose-response curves were fitted with GraphPad Prism 6 to yield an average KD value.

LDLR in liver = experiment: liver LDLR levels in mice after intravenous PCSK9 (Western blot); type: in vivo, mice (BALB6/cJRj); settings: for liver LDLR level / PCSK9 induced degradation of LDLR in vivo: 1 hour after PCSK9 10 μg, heparin 50 U or suramin 300 μg co-injected, heparinase I 30 U infused before
Description: To test the effect of enzymatic removal of heparan sulfate GAGs on PCSK9 activity in vivo 10-12 week-old male BALB6/cJRj mice were infused with heparinase I (30 U) administered through a tail vein catheter 5 min prior injection of PCSK9 (10 μg). In control mice the heparinase injection and/or the PCSK9 injection were replaced with an injection of 0.9% saline. During heparinase infusion, mice were lightly anaesthetized with isoflurane continuously administered through a mask.
Mice (BALB6/cJRj) were subjected to a single intravenous administration (tail vein) of 10 μg human recombinant PCSK9 alone or in combination with heparin (50 U). One hour post injection mice were sacrificed and liver tissues were collected.

[2] = heparin affinity chromatography of PCSK9 and variants; type: binding; settings: conditioned media, Heparin Sepharose CL-6B beads
Description: Purified PCSK9 was loaded onto a 5 ml HiTrap Heparin HP column (GE Healthcare) in PBS. The column was connected to an Äkta Prime and washed with 5 column volumes of 10 mM NaH2PO4 (pH 7.4). PCSK9 was eluted using a linear gradient of 10 mM NaH2PO4 (pH 7.4) and 2 M NaCl and fractions were analyzed by SDS-PAGE. Based on the measured conductivity, the elution profile was transformed to a function of NaCl concentration using the transformation coefficient 0.065 mS/mM NaCl. PCSK9 was retained on the heparin column and eluted at a NaCl concentration of approximately 500 mM (FIG. 2E), indicating a strong and highly specific interaction with heparin.
(§1) In a different experiment, conditioned media from HepG2 cells were incubated with Heparin Sepharose CL-6B beads (GE Healthcare) in 10 mM NaH2PO4 (binding buffer). Following overnight incubation on a rotor at 4⊐ C, beads were washed in binding buffer before batch elution of heparin bound proteins in increasing concentration of NaCl. PCSK9 in input, flow through, and elution fractions were evaluated by Western blotting.
as §1, with “Conditioned” for “In a different experiment, conditioned”, “CHO” for “HepG2”, “cells transfected with PCSK9 variants of interest” for “cells”, “4° C.,” for “4⊐ C,”

LDLR in HepG2 cells [3] = experiment: LDLR degradation in HepG2 cells induced by PCSK9 WT or mutant; type: cell-based, human; settings: 10 nM PCSK9, 18 hours
Description: as §2

[4] = target: T1, R93R96R97R104R105H139 PCSK9 mutant and variants (Homo sapiens, UniProt Q8NBP7, H139A/R104A/R105A/R93A/R96A/R97A); experiment: immunoprecipitation of 35S-mutant PCSK9 and PCSK9 variants; type: binding; settings: 500 μl conditioned hybridoma media
T1 construct: expressed in transfected cells
Description: Western blot of GAPDH is shown as loading control. (B) Western Blot showing LDLR levels in liver of mice 1 hour afterintravenous administration of 10 μg PCSK9 alone or in combination with 50 U Heparin. 50 μg membrane preparations were loaded. As control is shown Western Blot for sortilin, a PCSK9 receptor previously shown not to be target of PCSK9 induced degradation. (C) Quantification of B) Bands were quantified by densitometry and dot plot show the individual level of each sample in percent of vehicle (0.9% NaCl) injected controls with mean values and SEM. […] (D) Autoradiography (16 h exposure) showing immunoprecipitation of native human ^35S labeled PCSK9 by serum (1 μl) from three rats immunized with DNA encoding rat PCSK9 with human HSPG binding domain. As negative controls were used preimmune serum from the animals. (E) Western Blot showing LDLR in HepG2 cells after overnight incubation with preimmune or immune IgG (1 μg/ml). […] (F) Autoradiography (16 h exposure) showing immunoprecipitation of human ^35S-PCSK9 by 24 individual mAbs (500 μl conditioned hybridoma media) selected in ELISA screening performed by Aldevron. […] (G) Bar graphs showing LDLR levels (average of 2-4 experiments with SEM) in HepG2 cells incubated with mAbs (1:10 dilution of conditioned hybridoma media) as analysed by Western Blot. Twelve individual mAb clones give an approximately two-fold increase LDLR. (H) Autoradiography (16 h exposure) showing immunoprecipitation of human ^35S-mutant PCSK9 (with R93R96R97R104R105H139 mutated to alanine residues) by 12 individual mAbs (500 μl conditioned hybridoma media) all showing PCSK9 inhibitory effect. As control was used a polyclonal antibody (pAb, AF3888 from R&D systems). […] As control was used R&D Systems AF3888 (pAb).
These 12 clones were tested to see whether they can bind an R93R96R97R104R105H139 PCSK9 mutant (FIG. 8H).

[5] = test system: cell surface PCSK9 on HepG2 cells; experiment: surface PCSK9 immunostaining of non-permeabilized HepG2 cells stably expressing PCSK9; type: cell-based, human; settings: heparinase I 0.0002 UN/ml, 1 h
Description: We speculated that HSPG might be involved in the capture of PCSK9. Thus, we treated human hepatocyte-derived HepG2 cells stably expressing PCSK9 with heparinase I. The enzyme heparinase I cleaves heparan sulfate GAG chains at the 1,4 O-linkage between uronic acid and D-glucosamine, thereby removing cell surface heparan sulfate chains.
HepG2 cells stably transfected with PCSK9 were seeded at 50.000 cells per coverslip and incubated overnight before addition of heparinase I (Sigma Aldrich/H2519) in PBS (0.0002 UN/ml) or PBS alone. Cells were incubated for 1 h. at 37⊐ C, before fixation in 4% paraformaldehyd and immunostaining of non-permeabilized cells with primary and secondary antibodies. Nuclei were visualized with Hoechst dye (Sigma Aldrich). Images were acquired on a Zeiss LSM780.

[6] = suramin 50 and PPADS 25 mg·kg-1·day-1

Molecule: CO[C@H]1O[C@H](COS(=O)(=O)O)[C@@H](O[C@@H]2O[C@@H](C(=O)O)[C@@H](O[C@H]3O[C@H](COS(=O)(=O)O)[C@@H](O[C@@H]4O[C@H](C(=O)O)[C@@H](O[C@H]5O[C@H](COS(=O)(=O)O)[C@@H](O)[C@H](O)[C@H]5NS(=O)(=O)O)[C@H](O)[C@H]4O)[C@H](OS(=O)(=O)O)[C@H]3NS(=O)(=O)O)[C@H](O)[C@H]2OS(=O)(=O)O)[C@H](O)[C@H]1NS(=O)(=O)O [Arixtra, Fondaparinux]
LDLR level in HepG2 cells (LDLR in HepG2 cells [1]; Arixtra 25-250 μg/ml, 24 h): elevated level of LDLR
LDLR level in HepG2 cells (LDLR in HepG2 cells [1]; Arixtra 25-250 μg/ml, 24 h, listed as Fondaparinux): increased levels of LDLR

Molecule: Cc1nc(N=Nc2ccc(S(=O)(=O)O)cc2S(=O)(=O)O)c(COP(=O)(O)O)c(C=O)c1O [PPADS, pyridoxal-phosphate-6-azophenyl-2′-4′-disulphonic acid]
block of UDP effect on iNOS and interleukin-6 (J774 macrophages): blocked
plaque size (apoE−/− mice; suramin 50 and PPADS 25 mg·kg-1·day-1, listed as PPDAS): reduce plaque size
plaque size (apoE−/− mice; [6]): reduces plaque size

Molecule: Cc1ccc(C(=O)Nc2ccc(S(=O)(=O)O)c3cc(S(=O)(=O)O)cc(S(=O)(=O)O)c23)cc1NC(=O)c1cccc(NC(=O)Nc2cccc(C(=O)Nc3cc(C(=O)Nc4ccc(S(=O)(=O)O)c5cc(S(=O)(=O)O)cc(S(=O)(=O)O)c45)ccc3C)c2)c1 [suramin]
uptake of fluorescently labelled LDL (HepG2 cells): increased cellular uptake of fluorescently labelled LDL particles; also recorded: increases the uptake of LDL two-fold
LDLR level compared with statins (LDLR in HepG2 cells [1]; 100 μM suramin vs mevastatin and simvastatin, 24 and 48 hours): higher level of LDLR that cells incubated with statins
LDLR level up regulated (LDLR in HepG2 cells [1]; suramin 200 μg/ml, overnight): 15 times
Kd (PCSK9): 190 µM
liver LDLR level / PCSK9 induced degradation of LDLR in vivo (LDLR in liver): significantly higher level of LDLR
block of UDP effect on iNOS and interleukin-6 (J774 macrophages): blocked
plaque size (apoE−/− mice; suramin 50 and PPADS 25 mg·kg-1·day-1, listed as Suramin): reduce plaque size
plaque size (apoE−/− mice; [6]): reduces plaque size

Molecule: Mutant R93: PCSK9 alanine substitution variant
binding to heparin (affinity chromatography) [2]: less affinity for heparin

Molecule: Mutant R93R104R105H139A: PCSK9 alanine substitution variant
binding to heparin (affinity chromatography) [2]: do not bind heparin; also recorded: did not bind to heparin

Molecule: dextran [non-sulfated dextran]
KD (affinity for PCSK9, MST) (PCSK9): no affinity

B2: heparinase I: enzyme that cleaves heparan sulfate GAG chains (Sigma Aldrich/H2519) (protein, UniProt Q05819 22-384, looked up)
Heparin lyase I: QQKKSGNIPYRVNVQADSAKQKAIIDNKWVAVGINKPYALQYDDKLRFNGKPSYRFELKAEDNSLEGYAAGETKGRTELSYSYATTNDFKKFPPSVYQNAQKLKTVYHYGKGICEQGSSRSYTFSVYIPSSFPDNATTIFAQWHGAPSRTLVATPEGEIKTLSIEEFLALYDRMIFKKNIAHDKVEKKDKDGKITYVAGKPNGWKVEQGGYPTLAFGFSKGYFYIKANSDRQWLTDKADRNNANPENSEVMKPYSSEYKTSTIAYKMPFAQFPKDCWITFDVAIDWTKYGKEANTILKPGKLDVMMTYTKNKKPQKAHIVNQQEILIGRNDDDGYYFKFGIYRVGNSTVPVTYNLSGYSETAR
intensity of surface PCSK9 staining [5]: marked decrease in the intensity of surface PCSK9 staining
liver LDLR level / PCSK9 induced degradation of LDLR in vivo (LDLR in liver): completely protected LDLR from PCSK9-induced degradation; also recorded: completely inhibits PCSK9 induced degradation of LDLR

Further lines, with some results ahead:

binding to heparin (affinity chromatography) [2]: bound heparin Sepharose
Molecule: WT PCSK9: wild type human PCSK9 (SEQ ID NO: 1)
LDLR level in liver in percent of vehicle injected controls (LDLR in liver; 1 hour after intravenous 10 μg PCSK9 alone or with 50 U Heparin, n=7 mice/group): 24.0±4.04%
LDLR levels in HepG2 cells incubated with PCSK9 variant (LDLR in HepG2 cells [3]): significantly lower levels of LDLR

Kd (PCSK9): 180 µM
Molecule: dextran sulphate [dextran sulfate]
LDLR level in HepG2 cells (LDLR in HepG2 cells [1]; dextran sulphate 0-200 μg/ml, 24 hour): concentration dependent increase of LDLR
LDLR level in HepG2 cells (LDLR in HepG2 cells [1]; dextran sulphate 0-200 μg/ml, 24 hour, listed as dextran sulphate): potently increase the cellular level of LDLR
plateau of cellular LDLR compared to vehicle control (LDLR in HepG2 cells [1]; dose-dependent, HepG2 cells): around 400%

binding of R93R96R97R104R105H139 PCSK9 mutant (immunoprecipitation) [4]: not able to bind this mutant
B1: mAb 8HA: rat monoclonal antibody against the HSPG binding domain; VH SEQ ID NO: 9, VK SEQ ID NO: 3 (antibody, V domains shown)
VH: QVTLKESGPGILQPSQTLSLTCSFSGFSLSSSGICVSWIRQPSGKGLEWLATICWEDSKGYNPSLKNRLTISKDTSNNQALLRITSVDTADTAIYYCARVYYWYFDFWGPGTMVTVSS
VL: DIVMTQSPSLLSASVGDRVTLSCKGSQNINNYLAWYQQKLGEAPKLLIYNTNSLQTGIPSRFSGSGSGTDCTLTIRSLQPEDVATYFCYQYNNGNTFGGGTKLELK
increase of cellular LDLR (LDLR in HepG2 cells [1]; mAbs, 1:10 dilution of conditioned hybridoma media): approximately two fold
